Test results as given in patent US10738004B2, “Cyclic compound” (Takeda Pharmaceutical Company Limited, priority 2016, dated 2020).

Columns and labels:
TLR4 = target: T1, TLR4 (Mus musculus, UniProt Q9QUK6); experiment: Suppressive effect on NO production (LPS-stimulated RAW264.7); type: cell-based; settings: mouse macrophage cell line RAW264.7; compound final concentration 10 nM; LPS 1.25 ng/ml + mouse interferon gamma 0.2 ng/ml; nitrite ion in culture supernatant (DAN fluorescence)
T1 construct: measured using mouse macrophage cell line RAW264.7; endogenous in cells; host or cells: RAW264.7 (mouse macrophage cell line)
T1 sequence (Q9QUK6 26-835): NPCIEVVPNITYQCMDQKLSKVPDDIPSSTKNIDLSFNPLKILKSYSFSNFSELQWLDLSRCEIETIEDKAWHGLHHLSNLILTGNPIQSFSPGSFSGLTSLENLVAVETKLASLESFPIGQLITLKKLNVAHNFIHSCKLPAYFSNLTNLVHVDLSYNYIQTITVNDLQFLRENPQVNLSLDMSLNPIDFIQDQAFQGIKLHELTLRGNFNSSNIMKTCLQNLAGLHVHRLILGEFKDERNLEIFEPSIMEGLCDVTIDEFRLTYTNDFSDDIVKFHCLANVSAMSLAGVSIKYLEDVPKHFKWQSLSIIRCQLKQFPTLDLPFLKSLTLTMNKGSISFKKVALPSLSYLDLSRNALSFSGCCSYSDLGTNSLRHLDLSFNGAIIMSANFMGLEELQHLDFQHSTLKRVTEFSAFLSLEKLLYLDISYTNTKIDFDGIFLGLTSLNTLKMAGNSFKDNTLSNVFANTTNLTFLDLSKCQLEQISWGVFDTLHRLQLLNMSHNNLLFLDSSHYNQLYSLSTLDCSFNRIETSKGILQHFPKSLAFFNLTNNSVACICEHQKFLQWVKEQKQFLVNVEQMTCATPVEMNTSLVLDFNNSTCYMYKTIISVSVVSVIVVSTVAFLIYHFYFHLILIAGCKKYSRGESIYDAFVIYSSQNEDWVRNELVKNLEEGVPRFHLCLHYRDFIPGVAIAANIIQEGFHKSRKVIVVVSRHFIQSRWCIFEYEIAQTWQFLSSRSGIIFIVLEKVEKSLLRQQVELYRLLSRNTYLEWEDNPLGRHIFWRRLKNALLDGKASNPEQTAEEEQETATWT
T1 sequence (Q9JHF9 19-160 partner): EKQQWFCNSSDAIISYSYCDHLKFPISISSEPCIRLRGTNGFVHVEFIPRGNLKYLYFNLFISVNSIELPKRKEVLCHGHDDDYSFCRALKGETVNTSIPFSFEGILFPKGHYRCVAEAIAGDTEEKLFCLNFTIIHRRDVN
Experimental: The suppressive activity on TLR4 was measured using mouse macrophage cell line RAW264.7 and by an inhibition ratio by the test compound (compound of Example 1) against NO produced by the addition of lipopolysaccharide (LPS). The cells were prepared at 2×10^6 cells/ml in RPMI-1640 medium (phenol red free) supplemented with 10% inactivated fetal calf serum, and seeded in a 384-well plate at 6×10^4 cells/30 μL per well. The cells were cultured overnight at 37° C. under 5% CO2/95% air. The test compound dissolved in DMSO was diluted 200-fold with RPMI-1640 medium to a compound concentration of […]. The prepared test compound (10 μL) was added to the cells (final concentration 10 nM), and LPS (Sigma Ltd.) and mouse interferon gamma (Wako Pure Chemical Industries, Ltd.) were respectively added by 10 μL to the final concentrations of 1.25 ng/ml and 0.2 ng/ml. After further culturing overnight, the concentration of nitrite ion (stable metabolite of NO) in the culture supernatant was measured and used as an index of NO production. The nitrite ion concentration was quantified by adding 10 μL of a solution of 20 μg/mL 2,3-diaminonaphthalene (DAN) in 0.2N HCl to the culture supernatant (20 μL), incubating the mixture at room temperature for 10 min, adding 0.5N NaOH (10 μL), and measuring 460 nm (excitation wavelength 355 nm) fluorescence value by a plate reader EnVision (PerkinElmer). […]

NO production suppression effect at 10 nM (% inhibition) (TLR4): 98 % inhibition
melting point: 155 to 156 °C
SMILES: CCOC(=O)C1=C[C@@H](O)CC[C@H]1S(=O)(=O)Cc1ccc(F)cc1Cl (single isomer, unassigned) [Example 1]
